Laboratory results published in ChEMBL document CHEMBL4840324, “Bioassay-Guided Isolation of an Abetiane-Type Diterpenoid from Prunella vulgaris That Protects against Concanavalin A-Induced Autoimmune Hepatitis” (J Nat Prod, 2021).
Active and inactive are the calls of the source. No cut-off for these calls is given here.

What was measured:
[1] = system: Splenocyte; assay: Inhibition of ConA-stimulated IFNgamma production in C57BL/6J mouse splenocytes at 0.156 to 1.25 uM; type: functional, cell-based; settings: dose 0.156-1.25 µM
[2] = system: Splenocyte; assay: Inhibition of ConA-stimulated TNFalpha production in C57BL/6J mouse splenocytes at 0.156 to 1.25 uM; type: functional, cell-based; settings: dose 0.156-1.25 µM
[3] = system: Splenocyte; assay: Inhibition of ConA-stimulated IL-6 production in C57BL/6J mouse splenocytes at 0.156 to 1.25 uM; type: functional, cell-based; settings: dose 0.156-1.25 µM
[4] = system: Splenocyte; assay: Inhibition of ConA-stimulated IL-2 production in C57BL/6J mouse splenocytes at 0.156 to 1.25 uM; type: functional, cell-based; settings: dose 0.156-1.25 µM
[5] = system: Mus musculus; assay: Hepatoprotective activity against ConA-induced hepatitis in C57BL/6J mouse assessed as suppression of ALT level at 10 mg/kg, ip administered for 3 days by automatic analyzer; type: functional, organism-based; settings: time 3.0 day
[6] = system: Mus musculus; assay: Hepatoprotective activity against ConA-induced hepatitis in C57BL/6J mouse assessed as suppression of AST level at 10 mg/kg, ip administered for 3 days by automatic analyzer; type: functional, organism-based; settings: time 3.0 day
[7] = system: Mus musculus; assay: Hepatoprotective activity against ConA-induced hepatitis in C57BL/6J mouse assessed as suppression of LDH level at 10 mg/kg, ip administered for 3 days by automatic analyzer; type: functional, organism-based; settings: time 3.0 day
[8] = system: Mus musculus; assay: Hepatoprotective activity against ConA-induced hepatitis in C57BL/6J mouse assessed as effect on cleaved caspase 3 expression at 10 mg/kg, ip administered for 2 days by TUNEL staining based assay; type: functional, organism-based; settings: time 2.0 day
[9] = system: Mus musculus; assay: Hepatoprotective activity against ConA-induced hepatitis in C57BL/6J mouse assessed as effect on BCL2 expression at 10 mg/kg, ip administered for 2 days by TUNEL staining based assay; type: functional, organism-based; settings: time 2.0 day
[10] = system: Mus musculus; assay: Hepatoprotective activity against ConA-induced hepatitis in C57BL/6J mouse assessed as effect on FAS expression at 10 mg/kg, ip administered for 2 days by TUNEL staining based assay; type: functional, organism-based; settings: time 2.0 day
[11] = system: Splenocyte; assay: Immunosuppressive activity against anti-CD3/anti-CD28 stimulated C57BL/6J mouse splenocytes assessed as reduction of IFN-gamma secretion at 0.625 to 2.5 uM; type: functional, cell-based; settings: dose 0.625-2.5 µM
[12] = system: Splenocyte; assay: Immunosuppressive activity against anti-CD3/anti-CD28 stimulated C57BL/6J mouse splenocytes assessed as reduction of TNFalpha secretion at 0.625 to 2.5 uM; type: functional, cell-based; settings: dose 0.625-2.5 µM
[13] = system: Splenocyte; assay: Immunosuppressive activity against anti-CD3/anti-CD28 stimulated C57BL/6J mouse splenocytes assessed as reduction of IL-6 secretion at 0.625 to 2.5 uM; type: functional, cell-based; settings: dose 0.625-2.5 µM
[14] = system: Splenocyte; assay: Immunosuppressive activity against anti-CD3/anti-CD28 stimulated C57BL/6J mouse splenocytes assessed as reduction of IL-10 secretion at 0.625 to 2.5 uM; type: functional, cell-based; settings: dose 0.625-2.5 µM
[15] = system: Splenocyte; assay: Immunosuppressive activity against anti-CD3/anti-CD28 stimulated C57BL/6J mouse splenocytes assessed as reduction of IL-17 secretion at 0.625 to 2.5 uM; type: functional, cell-based; settings: dose 0.625-2.5 µM
[16] = system: Splenocyte; assay: Immunosuppressive activity against anti-CD3/anti-CD28 stimulated C57BL/6J mouse splenocytes assessed as reduction of IL-4 secretion at 0.625 to 2.5 uM; type: functional, cell-based; settings: dose 0.625-2.5 µM
[17] = system: Splenocyte; assay: Immunosuppressive activity in C57BL/6J mouse splenocytes assessed as inhibition of ConA-induced splenocytes proliferation at 0.156 uM measured after 72 hrs by CellTrace Violet staining based flow cytometric analysis (reference value: 63.9 %); type: functional; design: scale not given: the % may be the effect or the level left
[18] = system: Splenocyte; assay: Immunosuppressive activity in C57BL/6J mouse splenocytes assessed as inhibition of ConA-induced splenocytes proliferation at 0.3125 uM measured after 72 hrs by CellTrace Violet staining based flow cytometric analysis (reference value: 63.9 %); type: functional; design: scale not given: the % may be the effect or the level left
[19] = system: Splenocyte; assay: Immunosuppressive activity in C57BL/6J mouse splenocytes assessed as inhibition of ConA-induced splenocytes proliferation at 0.625 uM measured after 72 hrs by CellTrace Violet staining based flow cytometric analysis (reference value: 63.9 %); type: functional; design: scale not given: the % may be the effect or the level left
[20] = system: Splenocyte; assay: Immunosuppressive activity in C57BL/6J mouse splenocytes assessed as inhibition of ConA-induced splenocytes proliferation at 1.25 uM measured after 72 hrs by CellTrace Violet staining based flow cytometric analysis (reference value: 63.9 %); type: functional; design: scale not given: the % may be the effect or the level left
[21] = Hepatotoxicity in C57BL/6J mouse at 10 mg/kg, ip administered for 3 days by hematoxylin and eosin staining based immunohistochemical analysis; type: toxicity, organism-based; settings: in vivo, 72 h, time 3 day
[22] = system: Mus musculus; assay: Hepatoprotective activity against ConA-induced hepatitis in C57BL/6J mouse assessed as suppression of CD3+ T cells infiltration expression at 10 mg/kg, ip administered for 2 days by TUNEL staining based assay; type: functional, organism-based; settings: time 2.0 day
[23] = Immunosuppressive activity in human PBMCs assessed as inhibition of anti-CD3/anti-CD28 induced T-cell proliferation at 0.3125 uM for 72 hrs by CellTrace Violet staining based flow cytometric analysis (reference value: 63.3 %); type: functional, PBMC; design: scale not given: the % may be the effect or the level left
[24] = Immunosuppressive activity in human PBMCs assessed as inhibition of anti-CD3/anti-CD28 induced T-cell proliferation at 0.625 uM for 72 hrs by CellTrace Violet staining based flow cytometric analysis (reference value: 63.3 %); type: functional, PBMC; design: scale not given: the % may be the effect or the level left
[25] = Immunosuppressive activity in human PBMCs assessed as inhibition of anti-CD3/anti-CD28 induced T-cell proliferation at 1.25 uM for 72 hrs by CellTrace Violet staining based flow cytometric analysis (reference value: 63.3 %); type: functional, PBMC; design: scale not given: the % may be the effect or the level left
[26] = Immunosuppressive activity in human PBMCs assessed as inhibition of anti-CD3/anti-CD28 induced T-cell proliferation at 2.5 uM for 72 hrs by CellTrace Violet staining based flow cytometric analysis (reference value: 63.3 %); type: functional, PBMC; design: scale not given: the % may be the effect or the level left
[27] = system: Splenocyte; assay: Immunosuppressive activity in C57BL/6J mouse splenocytes assessed as inhibition of anti-CD3/anti-CD28 induced T-cell proliferation at 0.3125 uM for 72 hrs by CellTrace Violet staining based flow cytometric analysis (reference value: 78.4 %); type: functional; design: scale not given: the % may be the effect or the level left
[28] = system: Splenocyte; assay: Immunosuppressive activity in C57BL/6J mouse splenocytes assessed as inhibition of anti-CD3/anti-CD28 induced T-cell proliferation at 0.625 uM for 72 hrs by CellTrace Violet staining based flow cytometric analysis (reference value: 78.4 %); type: functional; design: scale not given: the % may be the effect or the level left
[29] = system: Splenocyte; assay: Immunosuppressive activity in C57BL/6J mouse splenocytes assessed as inhibition of anti-CD3/anti-CD28 induced T-cell proliferation at 1.25 uM for 72 hrs by CellTrace Violet staining based flow cytometric analysis (reference value: 78.4 %); type: functional; design: scale not given: the % may be the effect or the level left
[30] = system: Splenocyte; assay: Immunosuppressive activity in C57BL/6J mouse splenocytes assessed as inhibition of anti-CD3/anti-CD28 induced T-cell proliferation at 2.5 uM for 72 hrs by CellTrace Violet staining based flow cytometric analysis (reference value: 78.4 %); type: functional; design: scale not given: the % may be the effect or the level left
[31] = system: PBMC; assay: Immunosuppressive activity against anti-CD3/anti-CD28 stimulated human PBMCs assessed as reduction of IFN-gamma secretion at 0.625 to 2.5 uM; type: functional, tissue-based; settings: dose 0.625-2.5 µM
[32] = system: PBMC; assay: Immunosuppressive activity against anti-CD3/anti-CD28 stimulated human PBMCs assessed as reduction of TNFalpha secretion at 0.625 to 2.5 uM; type: functional, tissue-based; settings: dose 0.625-2.5 µM
[33] = system: PBMC; assay: Immunosuppressive activity against anti-CD3/anti-CD28 stimulated human PBMCs assessed as reduction of IL-6 secretion at 0.625 to 2.5 uM; type: functional, tissue-based; settings: dose 0.625-2.5 µM
[34] = system: PBMC; assay: Immunosuppressive activity against anti-CD3/anti-CD28 stimulated human PBMCs assessed as reduction of IL-10 secretion at 0.625 to 2.5 uM; type: functional, tissue-based; settings: dose 0.625-2.5 µM

With `COC1=C(C(C)C)C(=O)[C@]23O[C@@]2(C1=O)[C@@]1(C)CC[C@H](O)C(C)(C)[C@@H]1CC3=O` the inhibition [1] was “Active”, the inhibition [2] was “Active” and the inhibition [3] was “Active”. The inhibition [4] was “Active”, the Activity [5] was “Active” and the Activity [6] was “Active”. The Activity [7] was “Active”, the Activity [8] was “inactive” and the Activity [9] was “inactive”. For the same compound, the Activity [10] was “inactive”, the Activity [11] was “Active” and the Activity [12] was “Active”. For the same compound, the Activity [13] was “Active”, the Activity [14] was “Active” and the Activity [15] was “Active”. For the same compound, the Activity [16] was “Active”, the Activity [17] was 51.1% and the Activity [18] was 42.2%. The Activity [19] was 29.9%, the Activity [20] was 10.8% and the Activity [21] was “Non-Toxic”. The Activity [22] was “Active”, the Activity [23] was 61.3% and the Activity [24] was 56.4%. For the same compound, the Activity [25] was 24.9%, the Activity [26] was 8.24% and the Activity [27] was 70.2%. For the same compound, the Activity [28] was 68.8%, the Activity [29] was 7.39% and the Activity [30] was 5.48%. For the same compound, the Activity [31] was “Active”, the Activity [32] was “Active” and the Activity [33] was “Active”. The Activity [34] was “Active”.
